Data published in US6423855B1, “Cytoprotective compounds” (Virginia Commonwealth University, priority 1996, dated 2002).
≈ marks a conversion by molar mass, not a printed value. Entries after “also recorded” stand apart in the source; their conditions may differ. Like-named read-outs stand apart in the source and are kept apart here.

Key:
[1] = tested on: pancreatin; assay: degradation in vitro by pancreatin; format: in vitro ADME; settings: commercial pancreatic enzyme preparation (Sigma)
Description: The compounds of the present invention are not generally hydrolyzed by pancreatic enzymes and are different from glycerol-based compounds in terms of their chemistry and metabolism. […] The resistance of PX-13 and PX-18 to metabolism by pancreatic enzymes supports their stability after oral administration.

[2] = biological target: T1, purified human disc type II, PLA2 (Homo sapiens, UniProt P14555); assay: inhibition of purified human disc type II PLA2; format: biochemical
T1 construct: the purified human disc type II, PLA2; from tissue; host or cells: human vertebral (herniated) disc
Experimental: Both PX-13 and PX-18 inhibit the purified human disc type II, PLA2. PLA2 activity was measured as described in Franson et al., Prostaglandins, Leukotrienes and Essential Fatty Acids, 43:63-70, 1991, which is herein incorporated by reference in its entirety.

[3] = tested on: drug-resistant P. falciparum strains; assay: growth of the same drug-resistant P. falciparum strains (PX-18); format: cell-based, Plasmodium falciparum; settings: for IC50: two strains as described above, which value for which strain not stated
[4] = tested on: basophils; assay: histamine release from basophils (anti-human IgE, diluted blood); format: cell-based
Experimental: The protocol to evaluate the effects of PX-18 on histamine release is described below. Freshly drawn heparinized blood from donors non-medicated for 3 days is diluted 1:5 with PBS containing 1% human serum albumin (diluent). Test drugs are diluted in diluent to 10 times final concentration, and 25 μl per well is added to duplicate wells of round-bottomed microtiter plates. Generally 3-fold dilutions of drug are examined four or five times. 200 μl of diluted blood is then added to each well. 5 minutes later, […] of rabbit anti-human IgE (purchased from Dako) is added per well, to give final concentrations of 1/400 and 1/1200 of antibody. Unstimulated (background release wells) have 25 μl of diluent added. Plates are gently tapped for mixing, then incubated for 30 minutes. After incubation, plates are cooled on ice, spun down in a refrigerated centrifuge, and replaced on ice. 100 μl plasma is removed from each well for assay, and placed in a 1.5 ml Eppendorf tube containing acetylation reagent. Following acetylation, the histamine adduct is quantitated by a sensitive and specific commercial competitive assay, utilizing the competition of enzyme conjugated acetyl-histamine with sample analyte for binding to a specific antibody on the solid phase. A sample of blood is also lysed by repeated freeze/thaw to determine total blood histamine. Results are expressed as a percentage of total blood histamine release. In an acceptable assay maximal release is greater than 45% and background release is less than 15%. Experiments are performed in duplicate or triplicate using separate blood donors.

[5] = tested on: cyclooxygenase II; assay: whole blood eicosanoid release, LPS induction; format: cell-based, human; settings: 5 ug/ml E. coli LPS, 6 hours, 37° C.
Experimental: (§1) The following protocol was employed to evaluate effects of PX-18 on production of leukotrienes and prostaglandins by blood cells under basal conditions, with ionophore stimulation of cyclooxygenase type I, and with lipopolysaccharide (LPS) induction of cyclooxygenase type II. Freshly-obtained heparinized blood from medication-free donors is diluted 1:1 with RPMI, and aliquoted in 0.6 ml amounts in sterile polypropylene 12×75 […] tubes. Test drugs are added at appropriate concentrations and diluted in saline with 1% human serum albumin. Control tubes have only diluent or drug vehicle added. Drugs are added five minutes prior to addition of stimulus, at 100×concentrations, (6 μl volumes). This is replicated for 3 racks of tubes, A thru C. A has no stimulus added, and has a 30 minute and 6 hr. tube for each drug concentration. B has 20 uM of the calcium ionophore A23187 added, and is incubated at 37° C. for 30 minutes. C has 5 ug/ml of E. coli strain Bort LPS added, and is incubated at 37° C. for 6 hours. At the end each time period, the appropriate tubes are placed on ice, centrifuged, and 0.4 ml of plasma carefully decanted into a tube containing formic acid and BHT to stop all reactions and preserve eicosanoid products. These tubes are then frozen at −70° C. for up to one week, then applied to Sep-pac mini columns and extracted into methanol. […]

[6] = tested on: cyclooxygenase I; assay: whole blood eicosanoid release, ionophore stimulation; format: cell-based, human; settings: 20 uM A23187, 30 minutes
Experimental: as §1

[7] = tested on: basal production of prostaglandins; assay: whole blood eicosanoid release, basal; format: cell-based, human; settings: no stimulus
Experimental: as §1

[8] = tested on: lipoxygenase products such as LTC4; assay: whole blood production of lipoxygenase products; format: cell-based, human; settings: comparison to MK 592
Experimental: as §1

[9] = tested on: lipoxygenase and cyclooxygenase; assay: lipoxygenase and cyclooxygenase metabolites with exogenous arachidonic acid; format: cell-based; settings: exogenous arachidonic acid added
Description: The comparison is to MK 592, a selective lipoxygenase inhibitor.

[10] = tested on: larval forms of an animal filarid; assay: molting of larval forms of a filarid
Description: Infections caused by parasites constitute a major public health problem throughout the world for humans and animals, annually resulting in significant incidence of disease, suffering and death. Parasites such as those that cause malaria and other protozoal parasites of animals and humans are especially troublesome.

[11] = tested on: PLA2 activity in extracts of rat bowel; assay: PLA2 activity in extracts of rat bowel; format: biochemical
[12] = tested on: small bowel graft; assay: small bowel transplantation ischemia-reperfusion injury; format: in vivo, rat
Experimental: (§2) These drugs were also tested for their ability to enhance the preservation of tissues stored for subsequent transplantation. The small bowel was removed from rats, washed free of luminal contents and the tissue stored in University of Wisconsin (UW) preservative media ±40 uM PX-13 or mepacrine for 48 hrs. The graft was then transplanted into rats with or without intravenous (IV) infusion of 20 mg/kg PX-13 or mepacrine at the time of transplantation.

[13] = small bowel storage in perfusate solution, tissue weight; parameters: species or system rat; settings: 24 and 48 hours in the perfusate solution
Experimental: These drugs were also tested for their ability to enhance the preservation of tissues stored for subsequent transplantation. […] The graft was then transplanted into rats with or without intravenous (IV) infusion of 20 mg/kg PX-13 or mepacrine at the time of transplantation.

[14] = peroxidation (malondialdehyde formation) of homogenized rat bowel
Experimental: as §2, with “of transplantation. Upon transplantation, the bowel is immediately injured as evidenced by tissue darkening within two minutes. […] Both PX-13 and mepacrine inhibit the peroxidation (malondialdehyde formation) of homogenized rat bowel, an indication that the membrane-stabilizing, PLA2-inhibitors, also have anti-oxidant activity.” for “of transplantation.”

[15] = tested on: human blood cells; assay: preservation of whole blood (LDH and hemoglobin release); format: cell-based; settings: 20 uM
Experimental: The effect of PX-13 and mepacrine on whole blood cell viability were tested as a function of time of storage.
Heparinized human blood was centrifuged at 400×g and the resulting plasma was removed and replaced with an equal volume of Dulbecco's medium. The resuspended cells were then incubated at 37° C. for 0-72 hrs. in a shaking water bath. At the indicated times, a 0.8 ml aliquot was removed and centrifuged at 400×g to sediment cells. Appearance of lactate dehydrogenase (LDH) and hemoglobin in the supernate was indicative of cell injury. PX-13 and mepacrine stabilized cells and decreased the injury as evidenced by diminished levels of LDH and hemoglobin in the supernate. This is expressed as percent protection.

T1 sequence (P14555 21-144): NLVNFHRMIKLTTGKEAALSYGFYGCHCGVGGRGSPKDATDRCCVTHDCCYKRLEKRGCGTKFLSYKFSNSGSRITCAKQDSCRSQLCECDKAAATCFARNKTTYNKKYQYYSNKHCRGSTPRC

CCCCCCCC/C=C\CCCCCCCC(=O)OCCN(CCOC(=O)CCCCCCC/C=C\CCCCCCCC)CCS(=O)(=O)O [PX-18, 2-[N,N-Bis(2-oleoyloxyethyl)amino]-1-ethanesulfonic acid]
degradation in vitro by pancreatin [1]: resistant to degradation | IC50 [2]: 300 nM | effectiveness relative to PX-13 [3]: 10 times | IC50 ([3]; Plasmodium falciparum, read-out: IC50): 1.3 µg/mL (≈ 1.75 µM) | IC50 [3]: 2.4 µg/mL (≈ 3.23 µM) | efficacy relative to cromolyn [4]: more efficacious than cromolyn | potency relative to epinephrine [4]: equipotent to epinephrine | degranulation of basophils ([4]; stimulus antibody to surface-bound IgE): inhibits | inhibition of cytokine-inducible cyclooxygenase II [5]: strongly inhibit | inhibition of constitutive cyclooxygenase I [6]: less inhibition | inhibition of basal production of prostaglandins [7]: even less or no inhibition | production of lipoxygenase products such as LTC4 [8]: inhibited | production of lipoxygenase and cyclooxygenase metabolites [9]: does not inhibit

CCN(CC)CCCC(C)Nc1c2ccc(Cl)cc2nc2ccc(OC)cc12 (centres unmarked) [mepacrine, reference compound]
molting of larval forms [10]: significantly reduced | inhibition of PLA2 activity [11]: inhibited | gross and microscopic injury to tissue ([12]; 40 uM in UW media 48 hrs, with or without 20 mg/kg IV at transplantation): dramatically reduced | protection against ischemia and reperfusion injury ([12]; small bowel transplantation): protect; also recorded: some protection although not as great as with PX-13 | weight of the tissues after storage [13]: reduced weight | peroxidation (malondialdehyde formation) [14]: inhibit | Percent Protection Hemoglobin ([15]; 48 hr): 61% | Percent Protection LDH ([15]; 48 hr, 37° C.): 58% | Percent Protection Hemoglobin ([15]; 72 hr): 45% | Percent Protection LDH ([15]; 72 hr): 27%
